Assay results reported in patent publication US10774064B2 (Cadent Therapeutics, Inc., priority 2016, dated 2020).

The compounds below were run against T1, small-conductance Ca2+-activated K+ channels (SK channels, subtype 2) (Homo sapiens, UniProt Q9H2S1) (assay: whole-cell patch-clamp of ionic current through SK2 channels in HEK293 cells (SC100)). Conditions: concentration that increases the basal current by 100%; HEK293 cells expressing SK2 channels.
T1 construct: expressed in transfected cells; host or cells: HEK293
Type: cell-based
How it was run: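 Whole-cell patch-clamp recording of current in HEK293 cells expressing SK2 channels. SC100 is the compound concentration that increases basal current by 100%.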

Structure (SMILES)	SC100
Cc1cc(C)n(-c2nc(NC3CCC(F)(F)CC3)cc(N3CCOC(C)C3)n2)n1 (stereo not shown) [Compound 188, N-(4,4-difluorocyclohexyl)-2-(3,5-dimethyl-1H-pyrazol-1-yl)-6-(2-methylmorpholino)pyrimidin-4-amine]	++ (++ means 200 nM-1000 nM)
Cc1cc(C)n(-c2cc(N3CCOC(C(N)=O)C3)nc(NC3CCC(F)(F)CC3)n2)n1 (stereo not shown) [Compound 114, 4-(2-((4,4-difluorocyclohexyl)amino)-6-(3,5-dimethyl-1H-pyrazol-1-yl)pyrimidin-4-yl)morpholine-2-carboxamide]	+ (+ means >1 uM)
Cc1cc(NC2CCC(F)(F)CC2)nc(-n2nc(CO)cc2C)n1 [Compound 241, (1-(4-((4,4-difluorocyclohexyl)amino)-6-methylpyrimidin-2-yl)-5-methyl-1H-pyrazol-3-yl)methanol]	+ (+ means >1 uM)
Cc1ccn(-c2nc(NC3CCC(F)(F)CC3)cc(N3CC(C)(O)C3)n2)n1 [Compound 140, 1-(6-((4,4-difluorocyclohexyl)amino)-2-(3-methyl-1H-pyrazol-1-yl)pyrimidin-4-yl)-3-methylazetidin-3-ol]	+ (+ means >1 uM)
Cc1cc(NC2CCC(F)(F)CC2)nc(-n2nc(CF)cc2C)n1 [Compound 256, N-(4,4-difluorocyclohexyl)-2-(3-(fluoromethyl)-5-methyl-1H-pyrazol-1-yl)-6-methylpyrimidin-4-amine]	++ (++ means 200 nM-1000 nM)
CCc1csc(-c2nc(C)cc(NC3CCC(F)(F)CC3)n2)n1 [Compound 279, N-(4,4-difluorocyclohexyl)-2-(4-ethylthiazol-2-yl)-6-methylpyrimidin-4-amine]	++ (++ means 200 nM-1000 nM)
COC(=O)N1CCC(Oc2cc(NC3CCC(F)(F)CC3)nc(-n3ccc(CF)n3)n2)C1 (stereo not shown) [Compound 297, methyl 3-((6-((4,4-difluorocyclohexyl)amino)-2-(3-(fluoromethyl)-1H-pyrazol-1-yl)pyrimidin-4-yl)oxy)pyrrolidine-1-carboxylate]	++ (++ means 200 nM-1000 nM)
Cc1cc(C)n(-c2cc(OCc3cn(C)nn3)cc(NC3CCC(F)(F)CC3)n2)n1 [Compound 244, N-(4,4-difluorocyclohexyl)-6-(3,5-dimethyl-1H-pyrazol-1-yl)-4-((l-methyl-1H-1,2,3-triazol-4-yl)methoxy)pyridin-2-amine]	++ (++ means 200 nM-1000 nM)
COC(=O)N1CC(Oc2cc(NC3CCC(F)(F)CC3)nc(-n3ccc(C(C)O)n3)n2)C1 (stereo not shown) [Compound 307, methyl 3-((6-((4,4-difluorocyclohexyl)amino)-2-(3-(1-hydroxyethyl)-1H-pyrazol-1-yl)pyrimidin-4-yl)oxy)azetidine-1-carboxylate]	+ (+ means >1 uM)
Cc1csc(-c2nc(NC3CCC(F)(F)CC3)cc([C@@H](C)O)n2)n1 (single isomer, unassigned) [Compound 364]	++ (++ means 200 nM-1000 nM)
Cc1cc(C)n(-c2cc(C(N)=O)cc(NC3CCC(F)(F)CC3)n2)n1 [Compound 175, 2-((4,4-difluorocyclohexyl)amino)-6-(3,5-dimethyl-1H-pyrazol-1-yl)isonicotinamide]	++ (++ means 200 nM-1000 nM)

Same assay, conditions: whole-cell patch-clamp, HEK293 cells expressing SK2 channels; concentration that increases the basal current by 100%

Structure (SMILES)	SC100 (μM)
COC(C)c1cc(-n2ccc(C)n2)nc(NC2CCC(F)(F)CC2)n1 (stereo not shown) [NSSy6651]	+ (+ means >1 uM)
CC(C)(C)c1ccn(-c2nc(NC3CCC(F)(F)CC3)cc(N3CCOCC3)n2)n1 [IN11177-025-P1, 2-(3-(tert-butyl)-1H-pyrazol-1-yl)-N-(4,4-difluorocyclohexyl)-6-morpholinopyrimidin-4-amine]	+ (+ means >1 uM)
Cc1ccn(-c2cc(COc3ncccc3C(C)O)cc(NC3CCC(F)(F)CC3)n2)n1 (stereo not shown) [IN11039-066-P1]	+++ (+++ means <200 nM)
Cc1ccn(-c2cc(N3CCOC(C(C)(C)O)C3)nc(NC3CCC(F)(F)CC3)n2)n1 (stereo not shown) [NSSy6958]	++ (++ means 200 nM-1000 nM)
COc1cc(NC2CCC(F)(F)CC2)nc(-c2cccc(C)n2)n1 [NSSy6889]	+ (+ means >1 uM)
COC(=O)N1CCC(O)(c2cc(NC3CCC(F)(F)CC3)nc(-n3ccc(C)n3)c2)C1 (stereo not shown) [IN11251-035-P1, methyl 3-(2-((4,4-difluorocyclohexyl)amino)-6-(3-methyl-1H-pyrazol-1-yl)pyridin-4-yl)-3-hydroxypyrrolidine-1-carboxylate]	++ (++ means 200 nM-1000 nM)
COC(=O)N1CC(Oc2cc(NC3CCC(F)(F)CC3)nc(-c3nccs3)n2)C1 [NSSy6167]	+ (+ means >1 uM)
Cc1ccn(-c2nc(NC3CCC(F)(F)CC3)cc(OCc3cocn3)n2)n1 [IN11053-024-P1]	+ (+ means >1 uM)
Cc1csc(-c2nc(NC3CCC(F)(F)CC3)cc(C(C)(C)C)n2)n1 [IN11220-039-P1, 6-(tert-butyl)-N-(4,4-difluorocyclohexyl)-2-(4-methylthiazol-2-yl)pyrimidin-4-amine]	++ (++ means 200 nM-1000 nM)
Cc1cccc(-c2cc(CO)cc(NC3CCC(F)(F)CC3)n2)n1 [IN11111-063-P1, (6-((4,4-difluorocyclohexyl)amino)-6′-methyl-[2,2′-bipyridin]-4-yl)methanol]	+ (+ means >1 uM)
CC(=O)N1CCN(c2cc(-c3nc(C)cs3)nc(NC3CCC(F)(F)CC3)n2)CC1 [NSSy6598, 1-(4-(2-((4,4-difluorocyclohexyl)amino)-6-(4-methylthiazol-2-yl)pyrimidin-4-yl)piperazin-1-yl)ethan-1-one]	++ (++ means 200 nM-1000 nM)
COC(=O)N1CC(Oc2cc(NC3CCCCC3)nc(-c3nc(C)cs3)n2)C1 [NSSy6099]	+++ (+++ means <200 nM)
CCOC(C)c1cc(NC2CCC(F)(F)CC2)nc(-n2ccc(C)n2)n1 (stereo not shown) [IN10876-061-P1, N-(4,4-difluorocyclohexyl)-6-(1-ethoxyethyl)-2-(3-methyl-1H-pyrazol-1-yl)pyrimidin-4-amine]	+ (+ means >1 uM)
CCOC(=O)c1cnc(-c2nc(C)cs2)nc1NC1CCC(F)(F)CC1 [IN11238-035-P1, ethyl 4-((4,4-difluorocyclohexyl)amino)-2-(4-methylthiazol-2-yl)pyrimidine-5-carboxylate]	+ (+ means >1 uM)
COC(C)c1cc(NC2CCC(F)(F)CC2)nc(-n2ccc(C(F)(F)F)n2)n1 (stereo not shown) [IN11053-076-P1, N-(4,4-difluorocyclohexyl)-6-(1-methoxyethyl)-2-(3-(trifluoromethyl)-1H-pyrazol-1-yl)pyrimidin-4-amine]	+ (+ means >1 uM)
CC(=O)NCc1cc(NC2CCC(F)(F)CC2)nc(-c2nc(C)cs2)c1 [NSSy5640, N-((2-((4,4-difluorocyclohexyl)amino)-6-(4-methylthiazol-2-yl)pyridin-4-yl)methyl)acetamide]	++ (++ means 200 nM-1000 nM)
COc1cc(NC2CCC(F)CC2)nc(-c2nc(C)cs2)n1 (stereo not shown) [IN11067-072-P1]	+ (+ means >1 uM)
Cc1csc(-c2nc(N)cc(NC3CCC(F)(F)CC3)n2)n1 [IN11055-068-P1, N4-(4,4-difluorocyclohexyl)-2-(4-methylthiazol-2-yl)pyrimidine-4,6-diamine]	+ (+ means >1 uM)
Cc1ccn(-c2nc(C(C)O)cc(N3CCCCCC3)n2)n1 (stereo not shown) [IN10881-058-P1]	+ (+ means >1 uM)
Cc1csc(-c2nc(NC3CCC(F)(F)CC3)cc(OC3CN(C(=O)C(C)C)C3)n2)n1 [NSSy5629]	+++ (+++ means <200 nM)
